In ChEMBL document CHEMBL4819019, “Design, synthesis, antibacterial activity and toxicity of novel quaternary ammonium compounds based on pyridoxine and fatty acids” (Eur J Med Chem, 2021):
Converted amounts (≈) assume the structure as drawn.

How the values were obtained:
[1] = tested on: Staphylococcus ureilyticus; experiment: Antibacterial activity against clinical isolate Staphylococcus ureilyticus 1972 measured after 24 hrs by broth microdilution method; type: functional
Staphylococcus aureus [2] = experiment: Antibacterial activity against clinical isolate Staphylococcus aureus 25 measured after 24 hrs by broth microdilution method; type: functional
Klebsiella sp. = experiment: Antibacterial activity against clinical isolate Klebsiella sp. 11 measured after 24 hrs by broth microdilution method; type: functional
[3] = Genotoxicity in Salmonella typhimurium TA1535/pSK1002 assessed as DNA-damage activity by measuring beta-galactosidase activity at 75 ug/ml measured by SOS-chromotest relative to solvent control; type: toxicity; conditions: salmonella enterica subsp. enterica serovar typhimurium; dose 75 µg/ml
Staphylococcus aureus [4] = experiment: Antibacterial activity against clinical isolate methicillin-resistant Staphylococcus aureus 1065 measured after 24 hrs by broth microdilution method; type: functional
Staphylococcus aureus [5] = experiment: Antibacterial activity against clinical isolate methicillin-resistant Staphylococcus aureus 1131 measured after 24 hrs by broth microdilution method; type: functional
Pseudomonas sp. = experiment: Antibacterial activity against clinical isolate Pseudomonas sp. 5 measured after 24 hrs by broth microdilution method; type: functional
[6] = Cytotoxicity against human skin fibroblasts assessed as cell viability measured after 72 hrs by MTT assay; type: cell-based, Fibroblast
Acinetobacter sp. = experiment: Antibacterial activity against clinical isolate Acinetobacter sp. 3 measured after 24 hrs by broth microdilution method; type: functional
[7] = Cytotoxicity against human HEK293 cells assessed as cell viability measured after 72 hrs by MTT assay; type: cell-based
Pseudomonas aeruginosa [8] = experiment: Antibacterial activity against clinical isolate Pseudomonas aeruginosa 1945 measured after 24 hrs by broth microdilution method; type: functional
Enterococcus faecalis [9] = experiment: Antibacterial activity against clinical isolate Enterococcus faecalis 23 measured after 24 hrs by broth microdilution method; type: functional
Enterococcus faecalis [10] = experiment: Antibacterial activity against clinical isolate Enterococcus faecalis 3063 measured after 24 hrs by broth microdilution method; type: functional
Staphylococcus aureus [11] = experiment: Antibacterial activity against Staphylococcus aureus ATCC 29213 measured after 24 hrs by broth microdilution method; type: functional
[12] = Genotoxicity in Salmonella typhimurium TA1535/pSK1002 assessed as DNA-damage activity by measuring beta-galactosidase activity at 7.5 ug/ml measured by SOS-chromotest relative to solvent control; type: toxicity; conditions: salmonella enterica subsp. enterica serovar typhimurium; dose 7.5 µg/ml
[13] = tested on: Staphylococcus intermedius; experiment: Antibacterial activity against clinical isolate methicillin-resistant Staphylococcus intermedius 1143 measured after 24 hrs by broth microdilution method; type: functional
[14] = Genotoxicity in Salmonella typhimurium TA1535/pSK1002 assessed as DNA-damage activity by measuring beta-galactosidase activity at 15 ug/ml measured by SOS-chromotest relative to solvent control; type: toxicity; conditions: salmonella enterica subsp. enterica serovar typhimurium; dose 15 µg/ml
[15] = Genotoxicity in Salmonella typhimurium TA98 assessed as number of revertant by Ames spot test relative to solvent control; type: toxicity; conditions: salmonella enterica subsp. enterica serovar typhimurium
[16] = Lipophilicity, logP of the compound; type: physicochemical; conditions: octanol/water
[17] = Cytotoxicity against human mesenchymal stem cells assessed as cell viability measured after 72 hrs by MTT assay; type: cell-based
Staphylococcus aureus [18] = experiment: Antibacterial activity against clinical isolate methicillin-resistant Staphylococcus aureus 983 measured after 24 hrs by broth microdilution method; type: functional
[19] = Genotoxicity in Salmonella typhimurium TA1535/pSK1002 assessed as DNA-damage activity by measuring beta-galactosidase activity at 150 ug/ml measured by SOS-chromotest relative to solvent control; type: toxicity; conditions: salmonella enterica subsp. enterica serovar typhimurium; dose 150 µg/ml
Micrococcus luteus = experiment: Antibacterial activity against Micrococcus luteus clinical isolate measured after 24 hrs by broth microdilution method; type: functional
[20] = Genotoxicity in Salmonella typhimurium TA100 assessed as number of revertant by Ames spot test relative to solvent control; type: toxicity; conditions: salmonella enterica subsp. enterica serovar typhimurium
Escherichia coli [21] = experiment: Antibacterial activity against Escherichia coli MG 1655 measured after 24 hrs by broth microdilution method; type: functional
Staphylococcus aureus [22] = experiment: Antibacterial activity against clinical isolate methicillin-resistant Staphylococcus aureus 713 measured after 24 hrs by broth microdilution method; type: functional
Proteus sp. = experiment: Antibacterial activity against clinical isolate Proteus sp. 17 measured after 24 hrs by broth microdilution method; type: functional; conditions: Proteus sp. (in: enterobacteria)
[23] = tested on: Staphylococcus intermedius; experiment: Antibacterial activity against clinical isolate methicillin-resistant Staphylococcus intermedius 1061 measured after 24 hrs by broth microdilution method; type: functional
Klebsiella pneumoniae = experiment: Antibacterial activity against clinical isolate Klebsiella pneumoniae 1813 measured after 24 hrs by broth microdilution method; type: functional
[24] = Genotoxicity in Salmonella typhimurium TA1537 assessed as number of revertant by Ames spot test relative to solvent control; type: toxicity; conditions: salmonella enterica subsp. enterica serovar typhimurium
Pseudomonas aeruginosa [25] = experiment: Antibacterial activity against Pseudomonas aeruginosa ATCC 27853 measured after 24 hrs by broth microdilution method; type: functional
Moraxella = experiment: Antibacterial activity against clinical isolate Moraxella 765 measured after 24 hrs by broth microdilution method; type: functional
[26] = Genotoxicity in Salmonella typhimurium TA1535 assessed as number of revertant by Ames spot test relative to solvent control; type: toxicity; conditions: salmonella enterica subsp. enterica serovar typhimurium
Bacillus subtilis = experiment: Antibacterial activity against Bacillus subtilis 168 measured after 24 hrs by broth microdilution method; type: functional
Escherichia coli [27] = experiment: Antibacterial activity against clinical isolate Escherichia coli 718 measured after 24 hrs by broth microdilution method; type: functional
Serratia marcescens = experiment: Antibacterial activity against clinical isolate Serratia marcescens 1966 measured after 24 hrs by broth microdilution method; type: functional
[28] = Genotoxicity in Salmonella typhimurium TA1535/pSK1002 assessed as DNA-damage activity by measuring beta-galactosidase activity at 750 ug/ml measured by SOS-chromotest relative to solvent control; type: toxicity; conditions: salmonella enterica subsp. enterica serovar typhimurium; dose 750 µg/ml
Staphylococcus aureus [29] = experiment: Antibacterial activity against clinical isolate methicillin-resistant Staphylococcus aureus 1053 measured after 24 hrs by broth microdilution method; type: functional
[30] = Acute toxicity in po dosed C57BL/6CBA mouse measured upto 7 days; type: organism-based; conditions: in vivo, time <=7 day

| SMILES | MIC [1] [µg/mL] | MIC (Staphylococcus aureus [2]) [µg/mL] | MIC (Klebsiella sp.) [µg/mL] | Ratio [3] | MIC (Staphylococcus aureus [4]) [µg/mL] | MIC (Staphylococcus aureus [5]) [µg/mL] | MIC (Pseudomonas sp.) [µg/mL] | CC50 at 72 h [6] [µg/mL] | MIC (Acinetobacter sp.) [µg/mL] | CC50 at 72 h [7] [µg/mL] | MIC (Pseudomonas aeruginosa [8]) [µg/mL] | MIC (Enterococcus faecalis [9]) [µg/mL] | MIC (Enterococcus faecalis [10]) [µg/mL] | MIC (Staphylococcus aureus [11]) [µg/mL] | logP [16] | CC50 at 72 h [17] [µg/mL] | MIC (Micrococcus luteus) [µg/mL] | MIC (Escherichia coli [21]) [µg/mL] | MIC (Pseudomonas aeruginosa [25]) [µg/mL] | MIC (Bacillus subtilis) [µg/mL] | further results |
| --- | --- | --- | --- | --- | --- | --- | --- | --- | --- | --- | --- | --- | --- | --- | --- | --- | --- | --- | --- | --- | --- |
| CCCCCCCCCCCCCC(=O)NCC[N+](C)(C)Cc1cnc(C)c2c1COC(C)(CCC)O2.[Cl-] (configuration not stated) | > 64 | 2 | 32 | 0.9 | 2 | 2 | 32 | 2.15 | 32 | 1.16 | 64 | 1 | 1 | 1 | 2.24 | 1.38 | 1 | 32 | 8 | 2 | Ratio [12]: 1.5; MIC [13]: 2 µg/mL; Ratio [14]: 1.6; Ratio [15]: 4.4; MIC (Staphylococcus aureus [18]): 16 µg/mL; Ratio [19]: 0.5; Ratio [20]: 0.7; MIC (Staphylococcus aureus [22]): 2 µg/mL; MIC (Proteus sp.): > 64 µg/mL; MIC [23]: 2 µg/mL; MIC (Klebsiella pneumoniae): 8 µg/mL; Ratio [24]: 0.03; MIC (Moraxella): 16 µg/mL; Ratio [26]: 0.5; MIC (Escherichia coli [27]): 8 µg/mL; MIC (Serratia marcescens): 64 µg/mL; Ratio [28]: 0.3; MIC (Staphylococcus aureus [29]): 1 µg/mL |
| [H]/N=C(\N/C(=N/[H])NCCCCCCNC(=N)NC(=N)Nc1ccc(Cl)cc1)Nc1ccc(Cl)cc1 [CHLORHEXIDINE] |  |  |  |  |  |  |  | 6.32 (≈ 12.5 µM) |  | 7.28 (≈ 14.4 µM) |  |  |  | 2 (≈ 3.96 µM) | 4.51 | 5.12 (≈ 10.1 µM) | 0.5 (≈ 0.989 µM) | 1 (≈ 1.98 µM) | 4 (≈ 7.91 µM) | 1 (≈ 1.98 µM) | LD50 at 168 h [30]: 1260 mg/kg |
| CCCCCCCCCCCCCC(=O)OCC[N+](C)(C)Cc1cnc(C)c2c1COC(CCC)O2.[Cl-] (configuration not stated) | > 64 | 2 | 32 | 1.5 | 2 | 4 | 64 | 2.18 | 64 | 1 | > 64 | 4 | 4 | 0.5 | 2.97 | 1.28 | 0.5 | 16 | 1 | 4 | Ratio [12]: 1.4; MIC [13]: 4 µg/mL; Ratio [14]: 1.5; Ratio [15]: 4.7; MIC (Staphylococcus aureus [18]): 64 µg/mL; Ratio [19]: 1.3; Ratio [20]: 1.2; MIC (Staphylococcus aureus [22]): 2 µg/mL; MIC (Proteus sp.): > 64 µg/mL; MIC [23]: 2 µg/mL; MIC (Klebsiella pneumoniae): 64 µg/mL; Ratio [24]: 0.04; MIC (Moraxella): 64 µg/mL; Ratio [26]: 0.4; MIC (Escherichia coli [27]): 32 µg/mL; MIC (Serratia marcescens): > 64 µg/mL; Ratio [28]: 0.3; MIC (Staphylococcus aureus [29]): 2 µg/mL |
| CCCCCCCCCCCC(=O)OCCC[N+](C)(C)Cc1cnc(C)c2c1COC(CCC)O2.[Cl-] (configuration not stated) | > 64 | 8 | 32 | 1.5 | 16 | 16 | 32 | 4.32 | 64 | 2.15 | > 64 | 4 | 4 | 2 | 2.14 | 2.42 | 1 | 4 | 32 | 2 | Ratio [12]: 1.4; MIC [13]: 16 µg/mL; Ratio [14]: 1.4; Ratio [15]: 1.8; MIC (Staphylococcus aureus [18]): 32 µg/mL; Ratio [19]: 1.1; Ratio [20]: 2.4; MIC (Staphylococcus aureus [22]): 16 µg/mL; MIC (Proteus sp.): > 64 µg/mL; MIC [23]: 16 µg/mL; MIC (Klebsiella pneumoniae): > 64 µg/mL; Ratio [24]: 0.03; MIC (Moraxella): 64 µg/mL; Ratio [26]: 0.5; MIC (Escherichia coli [27]): 8 µg/mL; MIC (Serratia marcescens): > 64 µg/mL; Ratio [28]: 0.5; MIC (Staphylococcus aureus [29]): 8 µg/mL |
| CCCCCCCCCCCCCC(=O)NCC[N+](C)(C)Cc1cnc(C)c2c1COC(C)(C)O2.[Cl-] | 64 | 4 | 64 | 0.7 | 8 | 16 | 64 | 3.03 | 64 | 1.18 | 64 | 2 | 2 | 2 | 1.41 | 2.16 | 4 | 8 | 2 | 4 | Ratio [12]: 1.5; MIC [13]: 4 µg/mL; Ratio [14]: 1.5; Ratio [15]: 1.7; MIC (Staphylococcus aureus [18]): 64 µg/mL; Ratio [19]: 0.5; Ratio [20]: 1.3; MIC (Staphylococcus aureus [22]): 4 µg/mL; MIC (Proteus sp.): > 64 µg/mL; MIC [23]: 4 µg/mL; MIC (Klebsiella pneumoniae): 4 µg/mL; Ratio [24]: 0.06; MIC (Moraxella): 64 µg/mL; Ratio [26]: 0.8; MIC (Escherichia coli [27]): 32 µg/mL; MIC (Serratia marcescens): 64 µg/mL; Ratio [28]: 0.4; MIC (Staphylococcus aureus [29]): 4 µg/mL |
